Data published in ChEMBL document CHEMBL1131771, “Structure-activity relationship analysis of substituted 4-quinolinamines, antagonists of immunostimulatory CpG-oligodeoxynucleotides” (Bioorg Med Chem Lett, 1999).

Test: Acid dissociation constant was evaluated
Format: ADME
Conditions: not given

| pKa | Structure (SMILES) |
| --- | --- |
| 6.2 | CN(C)CCN(C)c1cc(-c2ccc3ccccc3c2)nc2ccccc12 |
| 2.9 | CN(C)CCNC(=O)c1cc(-c2ccc3ccccc3c2)nc2ccccc12 |
| 6.1 | CN(C)CCOc1cc(-c2ccc3ccccc3c2)nc2ccccc12 |
| 6.9 | CN1CCN(Cc2cc(Nc3cc(-c4ccc5ccccc5c4)nc4ccccc34)cc(CN3CCN(C)CC3)c2O)CC1 |

Test: Concentration required for half-maximal inhibition of CpG-ODN effect on thymidine uptake by WEHI 231 murine B-cells in the presence of alpha-sIgM.
Format: functional, cell-based
Conditions: Mus musculus, WEHI231

| EC50 | Structure (SMILES) |
| --- | --- |
| 316 nM | CN(C)CCCCNc1ccnc2ccccc12 |
| 570 nM | CC(C)(C)OC(=O)NCCNc1cc(-c2ccc3ccccc3c2)nc2ccccc12 |
| 2400 nM | CN(C)CCSc1cc(-c2ccc3ccccc3c2)nc2ccccc12 |
| 155 nM | CN(C)CCNc1cc(-c2ccc(C(F)(F)F)cc2)nc2ccccc12 |
| 39.8 nM | CN(C)CCNc1cc(-c2cccc3ccccc23)nc2ccccc12 |
| 4 nM | CN(C)CCCCNc1cc(-c2ccc3ccccc3c2)nc2ccccc12 |
| 416 nM | CN(C)CCN(C)c1cc(-c2ccc3ccccc3c2)nc2ccccc12 |
| > 10000 nM | CCCCc1ccc(Nc2cc(-c3ccc4ccccc4c3)nc3ccccc23)cc1 |
| 51.3 nM | CCN(CC)CCCC(C)Nc1cc(-c2ccccc2)nc2cc(Cl)ccc12 (stereo not given) |
| 1.2 nM | Oc1c(CN2CCCC2)cc(Nc2cc(-c3ccc4ccccc4c3)nc3ccccc23)cc1CN1CCCC1 |
| 11.5 nM | Cc1ccc(-c2cc(NCCCN(C)C)c3ccccc3n2)cc1 |
| 4400 nM | CN(C)CCCNc1ccnc2ccccc12 |
| 5.9 nM | CN(C)CCCCCCNc1cc(-c2ccc3ccccc3c2)nc2ccccc12 |
| 12.3 nM | Cc1ccc(-c2cc(NCCN(C)C)c3ccccc3n2)cc1 |
| 1.5 nM | Oc1c(CN2CCCCC2)cc(Nc2cc(-c3ccc4ccccc4c3)nc3ccccc23)cc1CN1CCCCC1 |
| 510 nM | OCCc1ccc(Nc2cc(-c3ccc4ccccc4c3)nc3ccccc23)cc1 |

| EC50 | Structure (SMILES) |
| --- | --- |
| > 10000 nM | CN(C)CCNC(=O)c1cc(-c2ccc3ccccc3c2)nc2ccccc12 |
| 11 nM | CN(C)CCNc1cc(-c2ccc3ccc4ccccc4c3c2)nc2ccccc12 |
| 25.1 nM | O=C(CCCO)NCCCN1CCN(CCCNc2cc(-c3ccc4ccccc4c3)nc3ccccc23)CC1 |
| 330 nM | OCCOCCNc1cc(-c2ccc3ccccc3c2)nc2ccccc12 |
| 6.5 nM | CN(C)CCNc1cc(/C=C/c2ccccc2)nc2ccccc12 |
| 11 nM | CN(C)CCCNc1cc(-c2ccc3ccccc3c2)nc2ccccc12 |
| 478 nM | CN(C)CCOc1cc(-c2ccc3ccccc3c2)nc2ccccc12 |
| 320 nM | Oc1ccc(Nc2cc(-c3ccc4ccccc4c3)nc3ccccc23)cc1 |
| 10 nM | Oc1c(CN2CCOCC2)cc(Nc2cc(-c3ccc4ccccc4c3)nc3ccccc23)cc1CN1CCOCC1 |
| 0.24 nM | CN1CCN(Cc2cc(Nc3cc(-c4ccc5ccccc5c4)nc4ccccc34)cc(CN3CCN(C)CC3)c2O)CC1 |
| 170 nM | OCCCCCCNc1cc(-c2ccc3ccccc3c2)nc2ccccc12 |
| 9.1 nM | CN(C)CCNc1cc(-c2ccc3ccccc3c2)nc2ccccc12 |
| 1150 nM | CC(CCCC(C)(C)O)Nc1cc(-c2ccc3ccccc3c2)nc2ccccc12 (stereo not given) |
| 110 nM | CCN(CC)CCCC(C)Nc1ccnc2cc(Cl)ccc12 (stereo not given) [CHLOROQUINE] |
| 1000 nM | CC(Nc1cc(-c2ccc3ccccc3c2)nc2ccccc12)C(O)c1ccccc1 (stereo not given) |
